Results on one molecule are retold here after patent US20250361217A1, “FATTY ACID COMPOUNDS” (University of Pittsburgh - Of the Commonwealth System of …, priority 2022, published 2025).

The structures appear in SMILES notation.

The experiment concerns the target T1, ACLY (Mus musculus, UniProt Q91V92).
T1 construct: Proteins were extracted from the liver powder (50 mg) with 1 mL of phosphate-buffered saline; from tissue; host or cells: liver of male C57BL/6J mice (HFD, treated in vivo with vehicle or 11U3-2M)
T1 sequence (Q91V92 1-1091): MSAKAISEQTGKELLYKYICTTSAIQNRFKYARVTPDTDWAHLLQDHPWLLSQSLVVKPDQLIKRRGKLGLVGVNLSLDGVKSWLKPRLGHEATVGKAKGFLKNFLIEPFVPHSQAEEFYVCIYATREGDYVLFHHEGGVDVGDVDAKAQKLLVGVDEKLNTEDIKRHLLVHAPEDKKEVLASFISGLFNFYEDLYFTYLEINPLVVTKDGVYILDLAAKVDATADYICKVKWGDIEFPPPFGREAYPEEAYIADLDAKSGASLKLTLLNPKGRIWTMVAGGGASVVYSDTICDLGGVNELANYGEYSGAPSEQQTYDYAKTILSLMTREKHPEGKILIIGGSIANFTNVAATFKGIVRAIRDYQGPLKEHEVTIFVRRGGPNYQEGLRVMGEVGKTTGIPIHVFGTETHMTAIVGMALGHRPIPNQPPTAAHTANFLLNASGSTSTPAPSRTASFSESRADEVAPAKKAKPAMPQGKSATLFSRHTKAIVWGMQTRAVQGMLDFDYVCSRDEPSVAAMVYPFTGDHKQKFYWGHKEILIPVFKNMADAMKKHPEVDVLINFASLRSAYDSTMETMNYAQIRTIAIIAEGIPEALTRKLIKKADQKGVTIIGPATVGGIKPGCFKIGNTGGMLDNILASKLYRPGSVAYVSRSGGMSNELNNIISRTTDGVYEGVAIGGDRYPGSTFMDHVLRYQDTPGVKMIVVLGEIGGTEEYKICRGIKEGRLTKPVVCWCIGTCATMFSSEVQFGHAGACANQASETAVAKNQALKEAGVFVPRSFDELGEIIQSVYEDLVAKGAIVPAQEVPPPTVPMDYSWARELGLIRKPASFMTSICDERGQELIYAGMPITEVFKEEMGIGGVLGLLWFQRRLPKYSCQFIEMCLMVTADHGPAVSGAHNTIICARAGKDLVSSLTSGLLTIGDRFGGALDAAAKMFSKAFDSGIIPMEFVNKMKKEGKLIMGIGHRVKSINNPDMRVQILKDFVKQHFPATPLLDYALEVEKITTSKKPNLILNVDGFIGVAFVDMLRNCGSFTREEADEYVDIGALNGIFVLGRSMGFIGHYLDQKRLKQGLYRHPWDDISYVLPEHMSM
The experiment in a line: Thermal shift assay of liver proteins, ACLY. Format: binding, mice. The method, then:
The liver samples (50 mg) were homogenized and vortexed in ice-cold RIPA buffer containing phosphatase (Fisher Scientific, #PIA32957) and protease (Fisher Scientific, #PIA32953) inhibitor cocktails. Protein concentration was determined using a […] (Pierce). Protein lysates were mixed with LDS Sample Buffer (1:4) and heated for 2 min at 95° C. The lysates were then loaded and electrophoresed on a 10% Tris-Glycine eXtended (BioRad, Criterion #5671034). The proteins were electrophoretically transferred to a PVDF membrane (BioRad, #1620177), and the transfer was confirmed by staining the membrane with 0.1% Ponceau S solution (Sigma-Aldrich, #6226-79-5). The membrane was then blocked for 90 min at RT with 5% nonfat dry milk (LabScientific) or 5% BSA (MilliporeSigma) in TBS-T (tris buffered saline+0.1% Tween 20 [Thermo Fisher Scientific]). […] Quantitative densitometric analysis was performed using Image Lab software (Bio-Rad).
Thermal Shift Assay Proteins were extracted from the liver powder (50 mg) with 1 mL of phosphate-buffered saline (PBS—Gibco, Paisley, UK) containing phosphatase (Fisher Scientific, #PIA32957) and protease (Fisher Scientific, #PIA32953) inhibitors. […] The Supernatants were transferred to new tubes and analyzed by western blot as described above.

As for `CCCc1ccc(CCCCCCCCCC(C)(C)C(=O)O)o1` [11U3-2M, 2,2-Dimethyl-11-(5-propylfuran-2-yl)undecanoic acid], the ACLY thermal stability entry (full cohorts, HFD+11U3-2M, higher temperature (52, 53.5, 55° C.)) is listed as “greatly increased”. Further, under “one mouse per group, 52, 53.5 and 55° C.”, the “ACLY thermal stability compared to veh” value is “higher stability”.
